Laboratory results reported in patent US8119400B2, “Methods of inhibiting smooth muscle cell migration and proliferation” (Beth Isreal Deaconess Medical Center, Inc., priority 2005, dated 2012).
Entries after “also recorded” stand apart in the source; their conditions may differ. No end group written: not given here. *: point of attachment. Myristoyl = CCCCCCCCCCCCCC(=O)*; {P} = phosphate

Legend:
MARCKS mRNA [1] = experiment: MARCKS mRNA knockdown after lipofection, HVSMCs (qRT-PCR); format: cell-based, human; details: 100 nM, 24 hours after lipofection
Description: (§1) MARCKS knockdown was achieved by lipofection of HVSMCs and HECs with MARCKS siRNA. Lipofection was performed using the DharmAFECT1 transfection reagent (Dharmacon) for 24 hours in serum- and antibiotic-free media as per manufacturer's protocol.
(§2) Evaluation of target gene mRNA knockdown after siRNA delivery was analyzed using a Stratagene MX3000P real time PCR (qRT-PCR) machine (Stratagene, La Jolla, Calif.). Total RNA was extracted from plate wells using RNeasy spin columns (Qiagen, Valencia, Calif.) and cDNA was prepared from […] using the iScript cDNA synthesis kit (Bio-Rad, Hercules, Calif.) prior to thermal cycling. For quantitative analysis, target gene levels were normalized to 18s or B2M levels as previously described (Bustin, S A et al. (2004) J. Mol. Endocrinol. 29(1):23-39), and target and housekeeper gene amplification reactions were performed in triplicate for each cDNA sample using 1 μl cDNA per reaction. […]
(§3) Thermal cycling was performed under the following conditions: Stage 1: 10 minutes at 95° C.; Stage 2 (40 cycles): 30 seconds at 95° C., 1 minute at 60° C., 30 seconds at 72° C. The Comparative Quantification software tool was used to compare normalized gene levels from cells transfected with targeting siRNA vs. non-targeting control siRNA (calibrators). […]

HVSMCs [2] = experiment: Fluoroblok migration assay, HVSMCs; format: cell-based, human; details: 100 nM, 3 days after lipofection, 30% FBS
Description: The migratory and proliferative abilities of HVSMCs and HECs were assessed after MARCKS knockdown using migration and proliferation assays. Phenotypic analysis of HVSMC migration was performed using the Fluoroblok migration assay (BD Biosciences, San Jose, Calif.) to measure the ability of calcein-AM fluorescently-labeled cells to migrate through a PET membrane with […] towards a chemotactant stimulus of 30% FBS. Briefly, VSMCs were incubated in 10 μM calcein-AM (Invitrogen) for 1 hour, trypsinized, and resuspended in serum-free VSMC media. In this assay, the upper chamber of the Transwell insert is separated from the lower chamber by a fluorescently opaque polyethyleneterephthalate (PET) membrane with 8 μm pores at the base of the insert. Approximately 50,000 VSMCs were loaded in each of the upper wells. The lower wells contained media supplemented with serum-free VSMC media, VSMC media with 30% FBS, or EC-conditioned media to stimulate cell migration. At time 0, the upper chambers were read at an excitation of 485 nm and an emission of 535 nm on a Biotek Fluorometer FLX800 (BioTek Instruments) and returned to the incubator. After 24 hours, the lower chambers were read with the same settings. The proportion of cells migrated were calculated by dividing the fluorescent intensity after 24 hours by the intensity read at time 0. […]

p27^kip1 [3] = experiment: p27kip1 Western blot after MARCKS knockdown, HECs; format: cell-based, human; details: 25 nM, 24 hours post-induction with 30% FBS, GAPDH corrected densitometry
Description: (§4) To investigate the differential effects of MARCKS knockdown on the proliferation of vascular cells, Western blots were performed to assess p27^kip1 expression after the induction of proliferation in HVSMCs and HECs. To assess p27^kip1 expression in the setting of MARCKS knockdown, HVSMC and HECs were transfected with 25 nM Control (C) or MARCKS (M) siRNA followed by 48 hour starvation in media with 0.1% FBS to synchronize cells in the Go phase of the cell cycle. Proliferation was then induced by the addition of media with 30% FBS and cells were lysed 24 hours post-induction for protein harvest and Western blot analysis.
(§5) Cell extracts were recovered from 6-well plates after siRNA lipofection and analyzed by sodium dodecyl sulfate-polyacrylamide gel electrophoresis (SDS-PAGE) and Western blotting with the use of standard techniques. Antibodies used for protein detection were: mouse monoclonal anti-GAPDH (1:10,000 dilution, Ambion), goat polyclonal anti-MARCKS (N-19) IgG (1:100 dilution, Santa Cruz Biotechnology, Santa Cruz, Calif.), mouse monoclonal anti-p27^kip-1 (1:250 dilution, Pharmingen, San Diego, Calif.) and mouse anti-β-tubulin IgM (clone 5H1) (1:250 dilution, Pharmingen, San Diego, Calif.). […]

HECs [4] = experiment: Fluoroblok migration assay, HECs; format: cell-based, human
MARCKS protein [5] = experiment: MARCKS protein Western blot, HECs; format: cell-based, human; details: 25 nM, 3 days after lipofection
Description: as §1
(§6) Cell extracts were recovered from 6-well plates after siRNA lipofection and analyzed by sodium dodecyl sulfate-polyacrylamide gel electrophoresis (SDS-PAGE) and Western blotting with the use of standard techniques. Antibodies used for protein detection were: mouse monoclonal anti-GAPDH (1:10,000 dilution, Ambion), goat polyclonal anti-MARCKS (N-19) IgG (1:100 dilution, Santa Cruz Biotechnology, Santa Cruz, Calif.), mouse monoclonal anti-p27^kip-1 (1:250 dilution, Pharmingen, San Diego, Calif.) and mouse anti-β-tubulin IgM (clone 5H1) (1:250 dilution, Pharmingen, San Diego, Calif.). Secondary antibodies used were peroxidase-conjugated goat anti-mouse IgG (H+L) (1:1,000-1:5,000 dilution, Chemicon International, Temecula, Calif.) and peroxidase-conjugated rabbit anti-goat IgG (H+L) (1:500 dilution, Bio-Rad). Densitometry was performed using Adobe Photoshop 6.0 or NIH Image J 1.34.

HECs [6] = experiment: alamarBlue proliferation assay, HECs; format: cell-based, human; details: 25 nM
[7] = test system: VSMCs in human saphenous vein; experiment: Proliferation after ex vivo siRNA transfection of whole vein; format: cell-based; details: 100 nM, three days after transfection, vs control siRNA
HVSMCs [8] = experiment: alamarBlue proliferation assay, HVSMCs; format: cell-based, human
Description: Phenotypic analysis of vascular cell proliferation was performed using the alamarBlue assay (Trek Diagnostics, Cleveland, Ohio), as previously described (Voytik-Harbin, SL et al. (1998) In Vitro Cell Dev. Biol. Anim. 34(3):239-246), to quantitate total cellular metabolic activity in the wells of tissue culture plates. Briefly, HVSMCs were plated on 24-well plates at a density of 10,000 cells per well and grown for 24 hours in normal cell media. Afterwards, a Day 0 measurement of fluorescent intensity after 4 hour incubation with the alamarBlue reagent was obtained prior to siRNA lipofection. 24 hour siRNA lipofection in serum-free media served as the starvation period to synchronize cells in the cell cycle, followed by the application of media with 30% FBS to stimulate proliferation. AlamarBlue assays were performed every two days, followed by the reapplication of fresh media with 30% FBS. For analysis, the fluorescence intensity of each well was determined using an LS-5B Luminescence Spectrometer (PerkinElmer) at excitation and emission wavelengths of 509 and 590 nm, respectively, and was divided by the value obtained at Day 0 to generate a measure of relative proliferation.

MARCKS mRNA [9] = experiment: MARCKS mRNA knockdown after lipofection, HECs (qRT-PCR); format: cell-based, human; details: 5 nM, 24 hours after lipofection
Description: as §1, §2, §3

MARCKS mRNA [10] = experiment: Rapid siRNA transfection, MARCKS mRNA knockdown, HECs; format: cell-based, human; details: 10 minutes, 2000 cells per well
Description: (§7) To more rigorously study the effects of pressure on gene silencing in vascular cells and develop an in vitro model for rapid siRNA transfection, a chamber that could hold standard tissue culture plates and be pressurized with wall air was fabricated. HVSMCs and HECs were seeded in 96-well plates at a density of 6,000 cells/cm^2 and were treated with Control or MARCKS siRNA suspended in normal saline solution, without the addition of a transfection reagent, at concentrations from 1-25 μM in either water, lactate ringers solution (Baxter, Deerfield, Ill.), normal saline (Baxter), cell media, or Plasmalyte A (Baxter) supplemented with 12 mg/ml papaverine hydrochloride and 4 units/ml heparin sodium (LoGerfo, FW et al. (1984) Arch. Surg. 119(10):1212-1214). First, siRNA solutions were applied to one plate of each cell type and rapid siRNA transfection was performed by placing cells in the specially-designed pressure chamber for 10 minutes while raising the ambient pressure by 0-1 ATM using wall air. Cells were then removed from the chamber and the siRNA solution was promptly aspirated and replaced with fresh media prior to returning the plates to the incubator. Parallel plates were subjected the same siRNA treatment and placed in the chamber for 10 minutes without pressurization.
(§8) Evaluation of target gene mRNA knockdown was performed as described in Example 8 above.

MARCKS protein [11] = experiment: MARCKS protein Western blot, HVSMCs; format: cell-based, human; details: 100 nM, 3 days after lipofection
Description: as §1, §6

MARCKS mRNA [12] = experiment: Rapid siRNA transfection, MARCKS mRNA knockdown, HVSMCs; format: cell-based, human; details: 10 minutes, 2000 cells per well
Description: as §7, §8

p27^kip1 [13] = experiment: p27kip1 Western blot after MARCKS knockdown, HVSMCs; format: cell-based, human; details: 25 nM, 24 hours post-induction with 30% FBS, GAPDH corrected densitometry
Description: as §4, §5

VSMCs [14] = details: 100 μM, after 5 days of serum stimulation
Description: When it is reduced, it emits fluorescence at 590 nm. Therefore, emission at 590 nm was used as a marker for relative cellular proliferation. Cells were incubated in the dark in media containing 10% alamarBlue (BioSource International, Carmilla, Calif.) and 10% FBS for four hours. After incubation, 1 ml of media from the incubated cells was mixed with 1 ml of media containing 10% FBS and the emission at 590 nm was recorded.
A time-zero alamarBlue Assay was performed after a 12-hour period of starvation to assure equal cell loading and synchronization in the cell cycle. The cells were incubated with predetermined concentrations of the PKC inhibitor, 20-28. Cells were incubated in media with 30% FBS for a total of 24 hours. At that point, alamarBlue assays were performed at predetermined intervals. After each assay was completed, the media was replenished with media containing 30% FBS. As in the migration assay, an unstimulated, negative control with standard media was assayed.
To inhibit the effects of MARCKS activity, cells in culture were treated with the protein kinase C inhibitor 20-28 (Calbiochem, La Jolla, Calif.). […] Eichholtz, T. et al. (1993) J. Biol. Chem. 268:1982-1986.

VSMCs [15] = details: 100 μM, 24 hours, FBS and TNF-α stimulus
Description: To assess cellular migration, a fluorescent migration assay (BD Biosciences, San Jose, Calif.) was utilized. In this assay, VSMC's grown in culture were labeled with 1 μM calcein. Approximately 50,000 cells, suspended in serum free media, were loaded onto a 0.3 cm^2 insert. The surface of the insert is a fluorescently-opaque polyethylene terephthalate (PET) membrane with 8 μm pores that are sufficiently large to permit cells to migrate across its surface. The insert was placed in a tissue culture plate with a chemotactic stimulus, TNF-α, in the lower well, which contained media with 30% FBS and TNF-A at a concentration of 200 Units/ml. Immediately after the inserts were placed into the respective wells, the wells were excited at a wavelength of 485 nm and the fluorescence emission was read at 535 nm. At the order of magnitude of cells that were used, the fluorescence is proportional to cell number in a linear relationship. After 24 hours, the plate was excited a second time and emission at 535 nm was read. Fluorescence was read only from the bottom well, such that only cells that have migrated contribute to the measured fluorescence. The proportion of cells that migrated was determined by dividing the fluorescence of the bottom of the wells at 24 hours by the initial fluorescence from the top of the wells at the time of plating. […]

| Substance | MARCKS mRNA knockdown (MARCKS mRNA [1]) | cellular migration, % of controls (HVSMCs [2]) | increase in p27^kip1 protein expression relative to controls (p27^kip1 [3]) | effect on cellular migration (HECs [4]; 25 nM (FIG. 14B also 10 nM), vs control siRNA) | relative cellular migration (HECs [4]; 25 nM, 5% FBS with 200 ng/ml VEGF) | MARCKS protein knockdown (Western blot) (MARCKS protein [5]) | effect on HEC proliferation (HECs [6]; full MARCKS knockdown) | proliferation, fold increase at day 6 (HECs [6]; HECs, relative to Day 0) | effect on proliferation in transfected vein [7] | effect on HVSMC proliferation (HVSMCs [8]; 25 nM (FIG. 15A: 25, 50 and 100 nM), vs control scrambled siRNA) | proliferation, fold increase at day 6 (HVSMCs [8]; HVSMCs, 25 nM, 30% FBS, relative to Day 0) | MARCKS mRNA knockdown (MARCKS mRNA [9]) | MARCKS knockdown (MARCKS mRNA [10]; 0 ATM) | MARCKS knockdown (MARCKS mRNA [10]; 0.4 ATM) | MARCKS protein knockdown (Western blot) (MARCKS protein [11]) | MARCKS knockdown (MARCKS mRNA [12]; 0 ATM) | MARCKS knockdown (MARCKS mRNA [12]; 0.4 ATM) | increase in p27^kip1 protein expression relative to controls (p27^kip1 [13]) | emission at 590 nm (alamarBlue) (VSMCs [14]) | proportion of cells migrated across the membrane (VSMCs [15]) |
| --- | --- | --- | --- | --- | --- | --- | --- | --- | --- | --- | --- | --- | --- | --- | --- | --- | --- | --- | --- | --- |
| MARCKS siRNA: siRNA, sense 5′-GGU-GCC-CAG-UUC-UCC-AAG-AUU-3′ (SEQ ID NO. 18), anti-sense SEQ ID NO. 19 with 5′ phosphate (sense GGUGCCCAGUUCUCCAAGAUU; antisense UCUUGGAGAACUGGGCACCUU; sense: chemistry not given here; antisense: 5' {P}, sugars by position and backbone not given here) | 54±2% | 68±7% | 1.8 fold | no significant effect; also recorded: no significant difference | 1.0±0.7 | complete knockdown | only a minimal effect | 1.90±0.06 fold | reduced proliferation | near complete arrest | 1.41±0.36 fold | 89±1% | 22±17% | 53±10% | complete knockdown | 0±12% | 41±12% | 3.2 fold | – | – |
| Myristoyl-FARKGALRQ [20-28] | – | – | – | – | – | – | – | – | – | – | – | – | – | – | – | – | – | – | 58.0±12.1 | 6.9%±1.5% |
